EC50 data for 31 compounds are collected here from patent US20240217990A1 (Gilead Sciences, Inc., priority 2021, published 2024).

As usually defined, the EC50 is the concentration giving half of the maximal effect.

One experiment concerns the target T1, TLR7 (Homo sapiens, UniProt Q9NYK1).
T1 construct: Human peripheral blood mononuclear cells (PBMCs) consist of lymphocytes, monocytes and dendritic cells that express TLR7, TLR8 and TLR9; endogenous in cells; host or cells: cryopreserved human PBMCs from healthy donors
T1 sequence (Q9NYK1 27-1049): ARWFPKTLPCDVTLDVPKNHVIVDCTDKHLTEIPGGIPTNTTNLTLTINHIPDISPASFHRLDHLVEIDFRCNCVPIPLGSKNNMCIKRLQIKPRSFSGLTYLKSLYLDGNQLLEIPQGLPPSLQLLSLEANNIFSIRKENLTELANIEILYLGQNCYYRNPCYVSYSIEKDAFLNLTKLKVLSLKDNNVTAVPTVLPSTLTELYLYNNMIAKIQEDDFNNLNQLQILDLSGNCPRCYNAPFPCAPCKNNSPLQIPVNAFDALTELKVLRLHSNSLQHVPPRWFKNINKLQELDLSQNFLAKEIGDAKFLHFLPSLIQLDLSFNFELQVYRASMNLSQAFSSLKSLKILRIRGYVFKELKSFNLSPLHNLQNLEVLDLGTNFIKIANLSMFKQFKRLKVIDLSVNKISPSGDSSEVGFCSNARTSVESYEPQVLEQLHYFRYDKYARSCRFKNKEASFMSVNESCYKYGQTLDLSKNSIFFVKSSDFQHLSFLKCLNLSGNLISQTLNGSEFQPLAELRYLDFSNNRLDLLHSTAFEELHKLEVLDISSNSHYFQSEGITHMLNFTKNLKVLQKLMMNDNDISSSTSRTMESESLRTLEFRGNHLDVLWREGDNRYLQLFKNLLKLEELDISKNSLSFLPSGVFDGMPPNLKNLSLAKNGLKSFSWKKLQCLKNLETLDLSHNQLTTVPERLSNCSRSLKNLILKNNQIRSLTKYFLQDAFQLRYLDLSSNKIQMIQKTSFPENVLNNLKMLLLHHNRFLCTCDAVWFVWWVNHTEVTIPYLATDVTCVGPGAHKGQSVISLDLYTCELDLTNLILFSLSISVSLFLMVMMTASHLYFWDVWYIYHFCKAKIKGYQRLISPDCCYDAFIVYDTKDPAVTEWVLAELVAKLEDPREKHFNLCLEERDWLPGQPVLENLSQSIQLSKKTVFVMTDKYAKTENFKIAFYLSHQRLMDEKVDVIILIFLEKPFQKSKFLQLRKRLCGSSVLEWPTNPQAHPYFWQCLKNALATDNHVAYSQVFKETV
As to the kind of experiment: TLR7 human PBMC cell-based assay (antagonist, GS-986 stimulated cytokine release). The settings on record: human PBMCs; TLR7 agonist GS-986 400 nM, 6 hours; cytokines (IL-6 and IFNα) in supernatant; read-out: TLR-7 EC50. In outline: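 Cryopreserved healthy-donor PBMCs (100,000/well, RPMI-1640 + 10% FBS) pre-incubated 1 h at 37 °C with antagonist (10-point dose response, quadruplicate), then stimulated 6 h with GS-986 at 400 nM final. Supernatant IL-6 and IFNα measured by electrochemiluminescence immunoassay; EC50 from sigmoidal fit.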

The target in another experiment is T2, TLR8 (Homo sapiens, UniProt Q9NR97).
T2 construct: Human peripheral blood mononuclear cells (PBMCs) consist of lymphocytes, monocytes and dendritic cells that express TLR7, TLR8 and TLR9; endogenous in cells; host or cells: cryopreserved human PBMCs from healthy donors
T2 sequence (Q9NR97 27-1041): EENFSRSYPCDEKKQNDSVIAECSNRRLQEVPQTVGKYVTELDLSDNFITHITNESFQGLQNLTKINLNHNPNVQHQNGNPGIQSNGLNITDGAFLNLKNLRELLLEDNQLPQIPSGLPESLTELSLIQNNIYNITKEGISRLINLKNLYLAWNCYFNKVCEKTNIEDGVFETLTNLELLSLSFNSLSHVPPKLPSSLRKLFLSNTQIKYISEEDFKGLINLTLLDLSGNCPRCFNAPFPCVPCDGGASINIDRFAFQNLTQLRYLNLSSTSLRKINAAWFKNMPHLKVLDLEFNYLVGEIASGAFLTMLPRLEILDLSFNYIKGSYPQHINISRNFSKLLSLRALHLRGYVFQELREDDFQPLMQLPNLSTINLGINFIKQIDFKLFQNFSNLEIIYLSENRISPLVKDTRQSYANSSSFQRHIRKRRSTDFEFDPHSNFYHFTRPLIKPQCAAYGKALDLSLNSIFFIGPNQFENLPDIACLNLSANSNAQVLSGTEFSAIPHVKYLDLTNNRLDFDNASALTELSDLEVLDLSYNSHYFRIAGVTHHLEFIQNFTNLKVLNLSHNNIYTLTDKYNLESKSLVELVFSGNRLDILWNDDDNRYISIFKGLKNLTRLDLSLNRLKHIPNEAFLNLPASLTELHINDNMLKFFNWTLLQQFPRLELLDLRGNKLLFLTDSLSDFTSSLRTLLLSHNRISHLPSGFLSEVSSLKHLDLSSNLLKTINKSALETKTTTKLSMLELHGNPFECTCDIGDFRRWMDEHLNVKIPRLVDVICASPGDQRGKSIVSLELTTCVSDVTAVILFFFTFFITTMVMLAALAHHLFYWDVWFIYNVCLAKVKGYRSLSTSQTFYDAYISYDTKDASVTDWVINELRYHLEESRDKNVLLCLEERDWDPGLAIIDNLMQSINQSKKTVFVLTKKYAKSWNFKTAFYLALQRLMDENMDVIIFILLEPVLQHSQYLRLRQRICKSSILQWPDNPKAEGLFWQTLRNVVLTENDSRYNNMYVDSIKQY
As to the kind of experiment: TLR8 human PBMC cell-based assay (antagonist, Compound A stimulated cytokine release). The settings on record: human PBMCs; TLR8 agonist Compound A 800 nM, 6 hours; cytokines (TNFa and IL 12p40) in supernatant; read-out: TLR-8 EC50. In outline:
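Cryopreserved donor PBMCs (100,000/well, RPMI + 10% FBS) were preincubated 1 h with antagonist (10-point dose response, quadruplicate), then stimulated with Compound A (800 nM final) for 6 h at 37 °C. TNFa and IL-12p40 in supernatants were measured by electrochemiluminescence; sigmoidal fits gave EC50.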

In the case of `Cc1cc(-c2[nH]c3cc(-c4cnc5c(c4)CNCC5)sc3c2C(C)C)cn2ncnc12` [Example 213], the EC50 was 0.8 nM on TLR7 and 0.2 nM on TLR8.

For the compound `Cc1cc(-c2[nH]c3cc(-c4ccc(N5CCNCC5)cc4)sc3c2C(C)C)cn2ncnc12` [Example 214], the values for the concentration for a half-maximal effect (EC50) on TLR7 and on TLR8 were 0.6 nM and 2.9 nM, respectively.

For the compound `Cc1cc(-c2[nH]c3cc(-c4cnn(C5CCNCC5)c4)sc3c2C(C)C)cn2ncnc12` [Example 215], the half-maximal effective concentration (EC50) at TLR7 is 0.3 nM; on TLR8, 2.3 nM.

With `Cc1cc(N2CCNCC2)ncc1-c1cc2[nH]c(-c3cc(C)c4ncnn4c3)c(C(C)C)c2s1` [Example 216], the half-maximal effective concentration (EC50) at TLR7 came to 0.4 nM; at TLR8 it was 3.1 nM.

Turning to `Cc1nc(N2CCNCC2)ccc1-c1cc2[nH]c(-c3cc(C)c4ncnn4c3)c(C(C)C)c2s1` [Example 217], the half-maximal effective concentration (EC50) on TLR7 was determined as 0.2 nM; at TLR8, 6 nM.

Turning to `Cc1cc(-c2[nH]c3cc(-c4cnc5c(c4)CCNC5)sc3c2C(C)C)cn2ncnc12` [Example 218], the EC50 on TLR7 stood at 3.3 nM; at TLR8, 1 nM.

For the compound `Cc1cc(-c2[nH]c3cc(-c4cnn5c4CNCC5)sc3c2C(C)C)cn2ncnc12` [Example 219], the EC50 at TLR7 came to 34.9 nM; at TLR8 it was 4.6 nM.

As for `Cc1nn(C2CCNCC2)cc1-c1cc2[nH]c(-c3cc(C)c4ncnn4c3)c(C(C)C)c2s1` [Example 220], the results for the EC50 on TLR7 and on TLR8 were 1.2 nM and 11.2 nM, respectively.

Turning to `Cc1cc(-c2[nH]c3cc(-c4ccc(C5CCNCC5)cc4)sc3c2C(C)C)cn2ncnc12` [Example 221], the EC50 on TLR7 came to 0.8 nM; on TLR8, 3.3 nM.

In the case of `Cc1c(-c2[nH]c3cc(-c4cnc5c(c4)CNCC5)sc3c2C(C)C)cn2ncnc2c1C` [Example 222], the values for the concentration giving a half-maximal response (EC50) at TLR7 and at TLR8 were 3.1 nM and 0.7 nM, respectively.

For the compound `Cc1cc(-c2[nH]c3cc(-c4ccc5c(c4)CCNC5)sc3c2C(C)C)cn2ncnc12` [Example 223], the EC50 on TLR7 is 0.4 nM; on TLR8, 0.5 nM.

Turning to `COc1cc(-c2[nH]c3cc(-c4cnc5c(c4)CNCC5)sc3c2C(C)C)cn2ncnc12` [Example 224], the EC50 turned out to be 0.4 nM on TLR7 and 0.3 nM on TLR8.

In the case of `Cc1cc(-c2[nH]c3cc(-c4cccc5c4CCNC5)sc3c2C(C)C)cn2ncnc12` [Example 225], the concentration giving a half-maximal response (EC50) was determined as 37.8 nM at TLR7 and 5.3 nM on TLR8.

Regarding `Cc1cc(-c2[nH]c3cc(-c4cnn(C5CCNC5)c4)sc3c2C(C)C)cn2ncnc12` (centres unmarked) [Example 226], the EC50 at TLR7 amounted to 0.6 nM; at TLR8, 1.6 nM.

For `Cc1cc(-c2[nH]c3cc(-c4ccc5c(c4)CC(N)C5)sc3c2C(C)C)cn2ncnc12` (centres unmarked) [Example 227], the EC50 at TLR7 was 0.6 nM; at TLR8 it was 0.7 nM.

For the compound `Cc1c(-c2[nH]c3cc(-c4ccc(N5CCNCC5)nc4)sc3c2C(C)C)cn2ncnc2c1C` [Example 228], the EC50 at TLR7 turned out to be 0.4 nM; at TLR8, 0.5 nM.

For the compound `Cc1c(-c2[nH]c3cc(-c4cnn(C5CCNCC5)c4)sc3c2C(C)C)cn2ncnc2c1C` [Example 229], the EC50 is 1.1 nM on TLR7 and 1.3 nM at TLR8.

As to `Cc1c(-c2[nH]c3cc(-c4cn(C5CCNCC5)nn4)sc3c2C(C)C)cn2ncnc2c1C` [Example 230], the half-maximal effective concentration (EC50) at TLR7 is 1.6 nM; on TLR8, 1.9 nM.

Take `Cc1c(-c2[nH]c3cc(-c4ccc(N5CCNCC5)cc4)sc3c2C(C)C)cn2ncnc2c1C` [Example 231]: the results for the EC50 on TLR7 and on TLR8 were 1.7 nM and 3.1 nM, respectively.

With `COc1cc(-c2[nH]c3cc(-c4cn(C5CCNCC5)nn4)sc3c2C(C)C)cn2ncnc12` [Example 232], the half-maximal effective concentration (EC50) on TLR7 amounted to 0.7 nM; at TLR8, 1.3 nM.

`COc1cc(-c2[nH]c3cc(-c4cnn(C5CCNCC5)c4)sc3c2C(C)C)cn2ncnc12` [Example 233]: the results for the concentration giving a half-maximal response (EC50) at TLR7 and at TLR8 were 0.4 nM and 1.4 nM, respectively.

In the case of `Cc1cc(-c2[nH]c3cc(-c4cccc(N5CCNCC5)c4)sc3c2C(C)C)cn2ncnc12` [Example 234], the half-maximal effective concentration (EC50) at TLR7 was determined as 8.1 nM; on TLR8 it was 8.4 nM.

For the compound `Cc1cc(-c2[nH]c3cc(-c4nc5ccccc5[nH]4)sc3c2C(C)C)cn2ncnc12` [Example 235, 2-(1H-benzo[d]imidazol-2-yl)-6-isopropyl-5-(8-methyl-[1,2,4]triazolo[1,5-a]pyridin-6-yl)-4H-thieno[3,2-b]pyrrole], the EC50 was 110 nM on TLR7 and 114 nM on TLR8.

Regarding `Cc1cc(-c2[nH]c3cc(-c4nc5ccncc5[nH]4)sc3c2C(C)C)cn2ncnc12` [Example 236], the EC50 came out at 18.6 nM at TLR7 and 14.2 nM on TLR8.

Regarding `Cc1cc(-c2[nH]c3cc(-c4nc5ccc(N6CCNCC6)cc5[nH]4)sc3c2C(C)C)cn2ncnc12` [Example 237], the 50% effective concentration (EC50) is 6.8 nM on TLR7 and 49.4 nM at TLR8.

On to `Cc1cc(-c2[nH]c3cc(-c4nc5ccc(N6CCNCC6)cc5n4C)sc3c2C(C)C)cn2ncnc12` [Example 238], for which the EC50 on TLR7 turned out to be 2.8 nM; on TLR8 it was 14.2 nM.

For the compound `Cc1c(-c2[nH]c3cc(-c4nc5ccc(N6CCNCC6)cc5[nH]4)sc3c2C(C)C)cn2ncnc2c1C` [Example 239], the EC50 was 6.6 nM on TLR7 and 25.4 nM on TLR8.

For the compound `Cc1c(C(=O)N2CCNCC2)sc2c(C(C)C)c(-c3cc(C)c4ncnn4c3)[nH]c12` [Example 240, (6-isopropyl-3-methyl-5-(8-methyl-[1,2,4]triazolo[1,5-a]pyridin-6-yl)-4H-thieno[3,2-b]pyrrol-2-yl)(piperazin-1-yl)methanone], the concentration for a half-maximal effect (EC50) on TLR7 was 21 nM; on TLR8 it was 301 nM.

Consider `Cc1c(C(=O)N(C)C2CCNCC2)sc2c(C(C)C)c(-c3cc(C)c4ncnn4c3)[nH]c12` [Example 241], for which the 50% effective concentration (EC50) on TLR7 was determined as 1.4 nM; at TLR8, 314 nM.

`Cc1c(C(=O)N2CCC[C@H](N)[C@@H]2C)sc2c(C(C)C)c(-c3cc(C)c4ncnn4c3)[nH]c12` [Example 242]: the EC50 amounted to 15.4 nM on TLR7 and 219 nM on TLR8.

Take `Cc1c(C(=O)N2CCC[C@@H]3NCC[C@@H]32)sc2c(C(C)C)c(-c3cc(C)c4ncnn4c3)[nH]c12` [Example 243]: the 50% effective concentration (EC50) was determined as 52.4 nM at TLR7 and 82.9 nM on TLR8.
